Data as given in patent EP4744665A1, “COMBINATION OF POLQ INHIBITOR COMPOUND AND ANTI-CANCER THERAPEUTIC AGENT OR RADIOTHERAPY” (Simcere Zaiming Pharmaceutical Co., Ltd., priority 2023, dated 2025).

Tests used:
Experiment in all cases: Combined use with irradiation (IR), Bliss Independence model (Cell Titer Glo, 7 days)
Type in all cases: cell-based
Settings in all cases: combination with IR
DLD-1 = system: DLD-1
Procedure: (§1) DLD-1 colorectal adenocarcinoma cells, NUGC4 gastric cancer cells, NCI-H460 non-small cell lung cancer cells, SHP-77 small cell lung cancer cells, and LNCAP prostate cancer cells were cultured in a 1640 medium containing 10% fetal bovine serum. MDA-MB-436 breast cancer cells were cultured in a DMEM medium containing 10% fetal bovine serum. OVCAR3 ovarian cancer cells were cultured in a 1640 medium containing 20% fetal bovine serum and 10 µg/mL bovine insulin. The cells were all cultured at 37 °C with 5% CO2. Cells at the logarithmic growth phase were available for the experiment.
(§2) 100 µL of the cell medium was added to rows A and H and columns 1 and 12 of a 96-well cell culture plate. Cultured cells were resuspended (adherent cells were digested with trypsin) and counted to give information on cell density and viability. The dilution ratio of the resuspended cells required for inoculating a fixed number of cells into 90 µL of the medium in each culture well was calculated based on the cell density information. After the resuspended cells were diluted with the corresponding medium, 90 µL of the diluted cells were transferred to columns 2-11 of rows B-G of a 96-well cell culture plate using an Eppendorf multi-channel pipette (60 wells in total for each plate). The cell culture plate was incubated overnight in an incubator at 37 °C with 5% CO2.
(§3) The test compound was dissolved in DMSO to give a 10 mM stock solution for later use. In the experiment, the compound was further diluted to the corresponding concentration according to the concentration designed in the experiment, and based on this concentration, 4-fold serial gradient dilution was performed to give a total of 10 dose concentrations (the lowest dose was 0, and other specific concentration values were shown in FIG. 2). 10 µL of the diluted compound was added to the corresponding cell plate well, such that the final concentration of DMSO was 0.25%. The compound was incubated with the cells in an incubator at 37 °C with 5% CO2 for 4 h, and then the cell plate was transferred to Cellrad for irradiation (abbreviated as IR) at different doses (see FIG. 2 for specific dose values). After the irradiation was completed, the cell plate was incubated in an incubator at 37 °C with 5% CO2 for another 7 days, Cell Titer Glo was added at 50 µL/well, and the luminescence value of each well was read using an Envision microplate reader.
(§4) The luminescence value of the well containing only the cell medium was taken as the background (RLUbackground, corresponding cell survival rate to be 0%), the cell well containing only 0.25% DMSO without the compound and the irradiation treatment was taken as the maximum signal (RLUDMSO, corresponding cell survival rate to be 100%), and the luminescence values of the remaining wells containing cells and compounds at different concentrations were taken as RLUsample. The survival rate of each cell well was calculated as follows: Survival rate (%) = (RLUsample−RLUbackground)/(RLUDMSO−RLUbackground) × 100% [formula]
(§5) The interaction between the drug and irradiation (synergistic, independent, or antagonistic) was statistically analyzed by the Bliss Independence model using Combenefit software (Bliss, C.I., Bacteriol. Rev., 1956, 20, 243-258). The model assumes that the drug and irradiation act independently. The theoretical expected action curve of the combination was calculated from the following equation: Bliss effect = effect A + effect B−effect A × effect B [formula] wherein effect A is the effect of drug A at a particular concentration. Effect B is the effect of irradiation at a particular dose.
(§6) The Bliss effect is the expected effect when the combination of the drug and irradiation is administered precisely. A negative Bliss score (δ = observed effect - Bliss effect) indicates an antagonistic effect between the drug and irradiation if the observed effect (i.e., the experimentally measured combined effect) is less than the Bliss effect. […]

LNCAP = system: LNCAP
Procedure: as §1, §2, §3, §4, §5, §6

MDA-MB-436 = system: MDA-MB-436
Procedure: as §1, §2, §3, §4, §5, §6

NCI-H460 = system: NCI-H460
Procedure: as §1, §2, §3, §4, §5, §6

NUGC4 = system: NUGC4
Procedure: as §1, §2, §3, §4, §5, §6

OVCAR3 = system: OVCAR3
Procedure: as §1, §2, §3, §4, §5, §6

SHP-77 = system: SHP-77
Procedure: as §1, §2, §3, §4, §5, §6

Measured: Combined effect

COc1ccc(Cl)cc1-c1cc(C)ncc1C(=O)Nc1nc2ncc(-c3ccc(C#N)cc3)nc2s1.[Na] [Sodium salt of compound I, Sodium Salt of 4-(5-Chloro-2-methoxyphenyl)-N-[6-(4-cyanophenyl)thiazolo[4,5-b]pyrazin-2-yl]-6-methylnicotinamide]
Synergistic: all assays above
